From patent US20160177259A1, “[…]” (Evonik Degussa GmbH, priority 2014, published 2016)

Test system: Clostridium ljungdahlii
Test: Formation of acetic acid and ethanol from synthesis gas in CGF1 mineral medium with refeeding of cysteine (Example 3)
Assay type: cell-based
Description: For the biotransformation of hydrogen and carbon dioxide to acetic acid and ethanol the homoacetogenic bacterium Clostridium ljungdahlii was cultivated on synthesis gas with refeeding of cysteine. All cultivation steps were carried out under anaerobic conditions in pressure-resistant glass bottles that can be closed airtight with a butyl rubber stopper.
The chemolithoautotrophic cultivation was carried out in a 1 L pressure-resistant glass bottle at 37° C., 100 rpm and a ventilation rate of 3 L/h with a premixed gas with 67% H2, 33% CO2 in an open water bath shaker for 69 h till OD600nm>0.4. The gas was discharged into the medium through a sparger with a pore size of 10 μm, which was mounted in the center of the reactors. Then the cell suspension was centrifuged and the cell pellet was resuspended in fresh CGF1 mineral medium as disclosed below.
For the production phase, as many washed cells from the preculture of C. ljungdahlii as necessary for an OD600nm of 0.2 were added to 100 ml mineral medium (CGF1 medium, pH 6.5, 1.4 g/L KOH, 2 g/L (NH4)2SO4, 1 g/L KH2PO4, 1 g/L K2HPO4, 10 mg/L FeSO4 X 7 H2O, 3.8 mg/L MnSO4 X 1 H2O, 246 mg/L MgSO4×7 H2O, aerated for 30 min with a premixed gas with 67% H2 and 33% CO2). […] The cultivation was carried out in 500 mL pressure-resistant glass bottles at 37° C., 150 rpm in an open water bath shaker for 163 h which were aerated to an overpressure of 0.8 bar with a premixed gas with 67% H2, 33% CO2 one time a day. The pH was held >5.0 by intermittent additions of a 140 g/L KOH solution. During the cultivation several 5 mL samples were taken to determinate OD600nm, pH and product formation. […] The determination of the product concentrations including the L-Cysteine concentration was performed by semiquantitative ^1H-NMR spectroscopy. As an internal quantification standard sodium trimethylsilylpropionate (T(M)SP) was used.

[1] = culture A, 400 mg/L L-cysteine-hydrochloride at start, no refeed, 0 h
[2] = culture A, 400 mg/L L-cysteine-hydrochloride at start, no refeed, 18.75 h
[3] = culture A, 400 mg/L L-cysteine-hydrochloride at start, no refeed, 41.5 h
[4] = culture A, 400 mg/L L-cysteine-hydrochloride at start, no refeed, 46.75 h
[5] = culture A, 400 mg/L L-cysteine-hydrochloride at start, no refeed, 65.5 h
[6] = culture A, 400 mg/L L-cysteine-hydrochloride at start, no refeed, 69.5 h
[7] = culture A, 400 mg/L L-cysteine-hydrochloride at start, no refeed, 89.75 h
[8] = culture A, 400 mg/L L-cysteine-hydrochloride at start, no refeed, 163.5 h
[9] = culture B, 200 mg/L L-cysteine-hydrochloride at start, no refeed, 0 h
[10] = culture B, 200 mg/L L-cysteine-hydrochloride at start, no refeed, 18.75 h
[11] = culture B, 200 mg/L L-cysteine-hydrochloride at start, no refeed, 41.5 h
[12] = culture B, 200 mg/L L-cysteine-hydrochloride at start, no refeed, 46.75 h
[13] = culture B, 200 mg/L L-cysteine-hydrochloride at start, no refeed, 65.5 h
[14] = culture B, 200 mg/L L-cysteine-hydrochloride at start, no refeed, 69.5 h
[15] = culture B, 200 mg/L L-cysteine-hydrochloride at start, no refeed, 89.75 h
[16] = culture B, 200 mg/L L-cysteine-hydrochloride at start, no refeed, 163.5 h
[17] = culture C, 200 mg/L L-cysteine-hydrochloride at start, re-fed 200 mg/L after 18, 41, 65, 89 h, 0 h
[18] = culture C, 200 mg/L L-cysteine-hydrochloride at start, re-fed 200 mg/L after 18, 41, 65, 89 h, 18.75 h
[19] = culture C, 200 mg/L L-cysteine-hydrochloride at start, re-fed 200 mg/L after 18, 41, 65, 89 h, 41.5 h
[20] = culture C, 200 mg/L L-cysteine-hydrochloride at start, re-fed 200 mg/L after 18, 41, 65, 89 h, 46.75 h
[21] = culture C, 200 mg/L L-cysteine-hydrochloride at start, re-fed 200 mg/L after 18, 41, 65, 89 h, 65.5 h
[22] = culture C, 200 mg/L L-cysteine-hydrochloride at start, re-fed 200 mg/L after 18, 41, 65, 89 h, 69.5 h
[23] = culture C, 200 mg/L L-cysteine-hydrochloride at start, re-fed 200 mg/L after 18, 41, 65, 89 h, 89.75 h
[24] = culture C, 200 mg/L L-cysteine-hydrochloride at start, re-fed 200 mg/L after 18, 41, 65, 89 h, 95.5 h
[25] = culture C, 200 mg/L L-cysteine-hydrochloride at start, re-fed 200 mg/L after 18, 41, 65, 89 h, 163.5 h

With `Cl.N[C@@H](CS)C(=O)O` [L-Cysteine-HCl, L-cysteine hydrochloride] the Acetate [1] was 34.0 mg/L, the Ethanol [1] was 2.0 mg/L and the “OD (600 nm)” value [1] was 0.206. The Acetate [2] was 1400.0 mg/L, the Ethanol [2] was 60.0 mg/L and the “OD (600 nm)” value [2] was 0.232. The Acetate [3] was 2550 mg/L, the Ethanol [3] was 420 mg/L and the “OD (600 nm)” value [3] was 0.293. For the same compound, the Acetate [4] was 2700 mg/L, the Ethanol [4] was 480 mg/L and the “OD (600 nm)” value [4] was 0.281. The Acetate [5] was 3500 mg/L, the Ethanol [5] was 580 mg/L and the “OD (600 nm)” value [5] was 0.324. For the same compound, the Acetate [6] was 3700 mg/L, the Ethanol [6] was 650 mg/L and the “OD (600 nm)” value [6] was 0.366. The Ethanol [7] was 580.0 mg/L, the “OD (600 nm)” value [7] was 0.324 and the Acetate [8] was 6100.0 mg/L. For the same compound, the Ethanol [8] was 670.0 mg/L, the “OD (600 nm)” value [8] was 0.339 and the Acetate [9] was 35.0 mg/L. The Ethanol [9] was 1.9 mg/L, the “OD (600 nm)” value [9] was 0.197 and the Acetate [10] was 1400.0 mg/L. For the same compound, the Ethanol [10] was 100.0 mg/L, the “OD (600 nm)” value [10] was 0.261 and the Acetate [11] was 2150 mg/L. The Ethanol [11] was 580 mg/L, the “OD (600 nm)” value [11] was 0.279 and the Acetate [12] was 2200 mg/L. For the same compound, the Ethanol [12] was 630 mg/L, the “OD (600 nm)” value [12] was 0.269 and the Acetate [13] was 2200 mg/L. The Ethanol [13] was 600 mg/L, the “OD (600 nm)” value [13] was 0.271 and the Acetate [14] was 2200 mg/L. For the same compound, the Ethanol [14] was 590 mg/L, the “OD (600 nm)” value [14] was 0.259 and the Acetate [15] was 2350.0 mg/L. The Ethanol [15] was 560.0 mg/L, the “OD (600 nm)” value [15] was 0.241 and the Acetate [16] was 2550.0 mg/L. The Ethanol [16] was 570.0 mg/L, the “OD (600 nm)” value [16] was 0.237 and the cell growth (culture C (re-fed) compared with cultures A and B) was “stronger cell growth”. The “concentrations of acetate and ethanol” value (culture C (re-fed) compared with cultures A and B, production phase) was “increased more”, the Acetate [17] was 27.0 mg/L and the Ethanol [17] was 2.0 mg/L. The “OD (600 nm)” value [17] was 0.209, the Acetate [18] was 1400.0 mg/L and the Ethanol [18] was 85.0 mg/L. For the same compound, the “OD (600 nm)” value [18] was 0.245, the Acetate [19] was 3000 mg/L and the Ethanol [19] was 510 mg/L. For the same compound, the “OD (600 nm)” value [19] was 0.339, the Acetate [20] was 3250 mg/L and the Ethanol [20] was 580 mg/L. The “OD (600 nm)” value [20] was 0.335, the Ethanol [21] was 790 mg/L and the “OD (600 nm)” value [21] was 0.399. The Ethanol [22] was 860 mg/L, the “OD (600 nm)” value [22] was 0.392 and the Acetate [23] was 5000.0 mg/L. The Ethanol [23] was 810.0 mg/L, the “OD (600 nm)” value [23] was 0.431 and the Acetate [24] was 5600.0 mg/L. The Ethanol [24] was 880.0 mg/L, the “OD (600 nm)” value [24] was 0.434 and the Acetate [25] was 7700.0 mg/L. The Ethanol [25] was 960.0 mg/L and the “OD (600 nm)” value [25] was 0.481.
